The values below come from US4020150A (priority 1974, dated 1977).

Data set [1] has as its system Walker tumor. The following applies: cited from earlier work.
For data set [2], the system named is Walker tumor. To be noted: rat, in vivo; cited from earlier work.
The conditions of data set [3]: cited from earlier work.
Another data set has as its system burn wounds. To be noted: burn therapy; cited from earlier work.
For data set [4] the following is noted: in water; cited from earlier work.
Data set [5] has as its system Yoshidia sarcoma and other tumors. To be noted: Connors et al.; cited from earlier work.
For the next data set, the system named is P. berghei. The following applies: high doses of PABA, protocol of Rollo.
A further data set has as its system tumors. To be noted: by itself; cited from earlier work.

On to `N[C@@H](Cc1ccc(N(CCCl)CCCl)cc1)C(=O)O` [melphalan], for which the “effectiveness against the tumor” value in the data set with Walker tumor [1] is on record as “very effective against the tumor”. Besides, the “ratio of concentration between the Walker tumor and the liver” value with Walker tumor [2] was 1:5.
In the case of `Nc1ccc(S(=O)(=O)Nc2ncccn2)cc1` [sodium sulfadiazine], the solubility result in data set [3] (water-soluble) is listed as “water-soluble”. Also, in the data set with burn wounds, the “reaction with body fluids / consumption” value is “would be used up rapidly and none would be left after a few days”.
Usually pKa stands for the negative logarithm of the acid dissociation constant. In the case of `Nc1ccc(S(=O)(=O)Nc2nccs2)cc1` [sulfathiazole], the pKa in data set [4] is given as 7.1. Also, in data set [5], the “selective concentration in other transplanted animal tumors” value is recorded as “do not concentrate selectively in these tumors”.
`Nc1ccc(S(=O)(=O)Nc2cnccn2)cc1` [sulfapyrazine]: in data set [4], the pKa is given as 6.0. The “selective deposition/concentration in Walker tumor” value in the data set on Walker tumor [2] is “selectively deposited in the tumor regions”.
For the molecule `Nc1ccc(S(=O)(=O)Nc2ncccn2)cc1` [sulfadiazine], the “inhibition of activity by PABA” value in the data set with P. berghei is given as “significantly inhibited by PABA”. For the same molecule, the “solubility of free acid” value in data set [3] (free acid) was “insoluble as a free acid”. Besides, in data set [3] (ionized), the solubility when ionized result was “very soluble when ionized”. For the same molecule, the anti-tumor activity result in the data set on tumors is given as “not an anti-tumor agent”.
